Tests used:
[1] = test system: synovial cells (OASC) from osteoarthritis (OA) patients; assay: Synovial cell proliferation inhibition (MTT method), OASC; type: cell-based, human; settings: MTT on days 4, 8 and 12, HA/Zn and Na-HA 10-300 μg/ml, Zn at 1/10 of these, vs non-drug addition group
Description: (§1) The effects of the complex of hyaluronic acid and zinc (HA/Zn) of the present invention, and the effects of sodium hyaluronate (Na-HA) and zinc (Zn) as comparison controls were tested on synovial cells (RASC) from rheumatoid arthritis (RA) patients, synovial cells (OASC) from osteoarthritis (OA) patients, and synovial cells (TASC) from traumatic arthritis (TA) patients.
(§2) The test substances used consisted of HA/Zn (Lot No. A65242, 1% solution, Gedeon-Richter, Ltd.), sodium hyaluronate (Na-HA, Lot No. KK4001, Q.P. Corp.), and zinc chloride (Zn, Lot No. ESH1413, Wako Pure Chemical Ind., Ltd.). Quantitative values of the contents of hyaluronic acid and zinc contained in the above-mentioned HA/Zn solution (specific gravity; d^2020=1.0134) were determined in advance. Since the amount of hyaluronic acid was 99% (105.0% when calculated as sodium hyaluronate) and the amount of zinc was 1.07 mg/ml when the above-mentioned 1% is assigned a value of 100, the weight ratio of hyaluronic acid to zinc in said HA/Zn was considered to be 10:1 (Na-HA:Zn). The test substances were tested at concentrations of 10 μg/ml, 30 μg/ml, 100 μg/ml, 150 μg/ml, 200 μg/ml, 250 μg/ml and 300 μg/ml for HA/Zn, the same concentrations as HA/Zn for Na-HA, and at 1/10 the concentrations of HA/Zn for Zn.
(§3) Synovial membrane tissue was sampled from the knee joint of rheumatoid arthritis (RA) patients (5 cases, 65.6±10.6 years old) and osteoarthritis (OA) patients (6 cases, 73.4±8.9 years old) during artificial joint replacement surgery, and from the knee joint of traumatic arthritis (TA) patients (6 cases, 25.6±6.7 years old) during arthroscopic surgery. […]
(§4) The synovial cells (SC) were inoculated into a microplate (96 wells, Iwaki) at a concentration of 3.55×10^3 cells/0.1 ml/well (1×10^4 cells/cm^2), and pre-cultured for 2 days at 37° C. in a vapor phase consisting of 5% CO2 and 95% air. […] The results were expressed with the optical absorbance that indicated a positive correlation with the number of cells. […]

[2] = test system: matrix metalloproteinase MMP-9; assay: Suppression of MMP-9 in synovial cell culture supernatant (EIA); type: cell-based, human; settings: for production of MMP-9 relative to control (non-drug addition = 100%): culture supernatant day 8, HA/Zn and Na-HA 100 μg/ml, Zn 10 μg/ml, divided by MTT absorbance
Description: Synovial cells were inoculated into culture dishes (diameter: 35 mm, Iwaki) to a concentration of 10×10^4 cells/2 ml/dish (1×10^4 cells/cm^2), and pre-cultured for 2 days at 37° C. in a vapor phase consisting of 5% CO2 and 95% air. Later, the media were replaced with media containing each drug, and the culture supernatants were sampled on day 8 of culturing under the same conditions followed by storage at −80° C. until measurement. The added concentrations of HA/Zn and Na-HA were 100 μg/ml (final concentration), while the concentration of Zn was 10 μg/ml (final concentration). The amount of matrix metalloproteinase MMP-9 in the supernatant was measured using EIA (Enzyme Immunoassay). In order to examine the results calculated as concentration in the supernatant per cell, the results were converted to values divided by the optical absorbance value of synovial cells by MTT at that time. In addition, this value was further expressed as a relative value to the control of the individual value of each drug addition group while assigning the control (non-drug addition group) a value of 100%.

[3] = test system: synovial cells (TASC) from traumatic arthritis (TA) patients; assay: Synovial cell proliferation inhibition (MTT method), TASC; type: cell-based, human; settings: MTT on days 4, 8 and 12, HA/Zn and Na-HA 10-300 μg/ml, Zn at 1/10 of these, vs non-drug addition group
Description: as §1, §2, §3, §4

[4] = test system: synovial cells (RASC) from rheumatoid arthritis (RA) patients; assay: Synovial cell proliferation inhibition (MTT method), RASC; type: cell-based, human; settings: MTT on days 4, 8 and 12, HA/Zn and Na-HA 10-300 μg/ml, Zn at 1/10 of these, vs non-drug addition group
Description: as §1, §2, §3, §4

[5] = Systemic toxicity after subcutaneous administration, rats; type: in vivo; settings: physically allowed maximum dose 200 mg/kg
Description: (§5) Administration methods normally performed for pharmaceuticals can be used for the hyaluronic acid/zinc complex of the present invention. Namely, the above-mentioned complex can be administered orally or parenterally, and administration by injection is particularly preferable. The effective dose of the hyaluronic acid/zinc complex of the present invention is 0.01 mg to 1 mg, and preferably 0.03 mg to 0.5 mg per joint per administration per person. […] The agent for treatment of arthritic disease and matrix metalloproteinase MMP-9 suppresser of the present invention can contain 0.001% to 1%, and preferably 0.01% to 0.5%, of the hyaluronic acid/zinc complex of the present invention with a routinely used pharmaceutical carrier. Examples of routinely used pharmaceutical carriers include bases typically used in therapeutic applications such as chitosan, starch, pectin, HPMC and sodium alginate, binders such as tragacanth gum, gum arabic, cornstarch and gelatin, vehicles such as crystalline cellulose and mannitol, disintegrating agents such as cornstarch, α-starch and alginic acid, lubricants such as magnesium stearate, sweeteners such as sucrose, lactose and saccharin, flavorings such as peppermint, mint and cherry, and antiseptics.

[6] = Systemic toxicity after subcutaneous administration, mice; type: in vivo; settings: physically allowed maximum dose 200 mg/kg
Description: as §5

Molecule | proliferation of synovial cells (inhibition) [1] | production of MMP-9 relative to control (non-drug addition = 100%) [2] [%] | proliferation of synovial cells (inhibition) [3] | proliferation of synovial cells (inhibition) [4] | concentration at which MMP-9 is suppressed ([2]; synovial cells originating in rheumatoid arthritis, in vitro) [µg/mL] | symptoms of systemic toxicity [5] | symptoms of systemic toxicity [6]
[Cl-].[Cl-].[Zn+2] [Zn, zinc chloride] | significant inhibition | 50 | significant inhibition | significant inhibition |  |  | 
complex of hyaluronic acid and zinc [HA/Zn] | significantly inhibited dependent on the amount added | 0 | significantly inhibited dependent on the amount added | significantly inhibited dependent on the amount added | ≤ 100 | not observed to cause symptoms of systemic toxicity | not observed to cause symptoms of systemic toxicity
sodium hyaluronate [Na-HA] | not significantly inhibited | 100 | not significantly inhibited | not significantly inhibited |  |  | 
